Test results published in patent publication US20230137836A1, “NOVEL PROLYLFK506 DERIVATIVES HAVING NEURITE GROWTH AND SYNAPSE FORMATION ACTIVITIES AND USES THEREOF” (Seoul National University R&DB Foundation, priority 2020, published 2023).
≈ marks a conversion by molar mass, not a printed value.

Tests used:
[1] = tested on: primary cultured murine hippocampal neurons; assay: functional synaptogenic activity, patch-clamp recordings of excitatory synaptic currents; assay type: cell-based; settings: treatment concentration 1 ng/mL, days 10-14 after primary culture
Method: The functional synaptogenic activity of the four kinds of novel compounds was examined using primary cultured murine hippocampal neurons according to a method reported by D. Park. et al. (Sci. Rep. 7:7260, 2017). In detail, hippocampal neurons on days 10-14 after primary culture while being exposed to FK506 or each of the four kinds of novel compounds (treatment concentration: 1 ng/mL) was subjected to patch-clamp recordings to measure frequency of excitatory synaptic currents. The frequency of excitatory synaptic currents is used as an index for changes in the number of synapses.

[2] = tested on: nigrostriatal dopaminergic pathway; assay: MPTP-induced Parkinson's disease animal model, TH immunohistochemistry; assay type: in vivo, mouse; settings: cannula injection into brain for 3 days, 5 mg/mL, MPTP i.p. on day 2, measured day 4, FIG. 28A
[3] = tested on: HEK293 T Cell; assay: MTT assay for cytotoxicity; assay type: cell-based; settings: 100 nM to 1,000 nM, FIG. 29
Method: (§1) To examine safety of the four kinds of novel compounds, an MTT assay for a cytotoxicity test, an Ames test for rapid evaluation of genotoxicity, and an hERG assay for evaluation of potential effects on cardiac repolarization were carried out. Methods generally used were conducted for the examination.
(§2) In detail, in the MTT assay, 80 to 800 times higher concentrations (100 nM to 1,000 nM) than the […] (1 ng/mL=1.24 nM) were determined as test concentrations of the four kinds of novel compounds. and the drug cytotoxicity was measured in mammalian normal cells (HEK293 T Cell). In the Ames test, the four kinds of novel compounds were treated at a concentration of 4 μg, 16 μg, 64 μg per plate, respectively, and the four kinds of novel compounds were evaluated by examining whether reverse mutation was induced a histidine auxotroph strain (Salmonella typhimurium TA98) and a tryptophan auxotroph strain (Escherichia coli WP2 uvrA). In the hERG assay, 0 μM, 2 μM, 8 μM, and 32 μM of each of the four kinds of novel compounds were treated to two or more numbers of cells. One CHO hERG cell was perfused with a normal tyrode solution. After confirming that the hERG channel current was recorded consistently for 3 to 4 sweeps, an excipient control group and the groups, each treated with one of the four kinds of novel compounds, were perfused for about 1 minute to 2 minutes or longer, and the magnitude of the hERG channel current was allowed to constantly record, and the magnitude of the relative current (pA or nA) and the suppression rate (%) were measured.

[4] = tested on: Salmonella typhimurium TA98; assay: Ames test (reverse mutation), histidine auxotroph strain; settings: 4 μg, 16 μg, 64 μg per plate
Method: as §1, §2

[5] = tested on: Escherichia coli WP2 uvrA; assay: Ames test (reverse mutation), tryptophan auxotroph strain; settings: 4 μg, 16 μg, 64 μg per plate
Method: as §1, §2

[6] = molecular target: T1, hERG channel (Homo sapiens, UniProt Q12809); assay: hERG assay in CHO hERG cells; assay type: cell-based; settings: 0 μM, 2 μM, 8 μM, and 32 μM
T1 construct: expressed in transfected cells; host or cells: CHO hERG cells
T1 sequence (Q12809 whole entry): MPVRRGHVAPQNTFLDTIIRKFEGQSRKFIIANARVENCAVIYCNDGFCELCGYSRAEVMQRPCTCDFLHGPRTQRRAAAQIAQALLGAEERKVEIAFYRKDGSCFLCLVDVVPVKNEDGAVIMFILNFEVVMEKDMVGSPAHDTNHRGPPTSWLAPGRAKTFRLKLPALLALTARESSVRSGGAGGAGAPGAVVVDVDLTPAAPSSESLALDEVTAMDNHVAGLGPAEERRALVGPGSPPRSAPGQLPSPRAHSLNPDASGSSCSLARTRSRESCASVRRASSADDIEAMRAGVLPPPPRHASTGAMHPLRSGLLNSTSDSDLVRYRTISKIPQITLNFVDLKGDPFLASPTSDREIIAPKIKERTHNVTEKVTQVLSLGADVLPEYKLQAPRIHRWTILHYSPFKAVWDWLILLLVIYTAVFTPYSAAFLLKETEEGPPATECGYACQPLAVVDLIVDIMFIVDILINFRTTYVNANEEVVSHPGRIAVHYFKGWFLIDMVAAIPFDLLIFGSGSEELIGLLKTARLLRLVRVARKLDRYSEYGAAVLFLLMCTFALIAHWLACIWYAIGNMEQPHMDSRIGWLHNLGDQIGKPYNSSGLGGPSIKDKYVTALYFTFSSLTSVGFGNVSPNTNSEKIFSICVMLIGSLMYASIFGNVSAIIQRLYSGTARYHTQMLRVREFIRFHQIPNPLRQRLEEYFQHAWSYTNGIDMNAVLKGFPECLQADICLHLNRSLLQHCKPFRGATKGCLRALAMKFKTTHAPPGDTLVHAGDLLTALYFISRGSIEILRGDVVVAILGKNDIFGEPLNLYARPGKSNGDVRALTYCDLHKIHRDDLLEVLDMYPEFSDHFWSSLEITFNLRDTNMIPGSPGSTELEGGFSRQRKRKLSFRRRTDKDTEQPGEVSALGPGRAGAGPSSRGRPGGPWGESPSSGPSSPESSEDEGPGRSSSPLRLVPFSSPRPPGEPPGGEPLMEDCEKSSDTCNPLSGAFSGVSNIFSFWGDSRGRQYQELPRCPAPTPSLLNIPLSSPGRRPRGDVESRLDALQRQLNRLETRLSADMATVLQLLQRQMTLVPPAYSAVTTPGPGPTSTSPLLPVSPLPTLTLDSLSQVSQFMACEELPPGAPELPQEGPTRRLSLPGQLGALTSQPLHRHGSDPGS
Excerpt: Further, in still another specific embodiment of the present invention, safety was confirmed in a 3-(4,5-dimethylthiazol-2-yl)-2,5-diphenyltetrazolium bromide (MTT) assay (FIG. 29) for cytotoxicity tests of the four kinds of novel compounds, an Ames test for rapid evaluation of genotoxicity, a human eag-related gene (hERG) assay for evaluation of potential effects on cardiac repolarization.
as §1, §2

[7] = tested on: CD4+ T cells; assay: in vitro T-cell activation assay (CTV retention, flow cytometry); assay type: cell-based, mouse
Excerpt: The reduced level of the immunosuppressive activity of the four kinds of novel compounds was examined using a common in vitro T-cell activation assay (J. Immunol. 143:718-726, 1989). […] When CD4+ T cells are stained with Cell Trace™ Violet (CTV), CTV retention of each cell decreases, as cells divide and T cells proliferate according to the immune response, and thus immunosuppressive activity was examined using the CTV retention as an index.
Single cells were isolated from the spleen of 6- to 8-week-old B6J laboratory mouse, and CD4+ T cells were isolated using MagniSort® Mouse CD4 T cell Enrichment Kit (eBioscience). CD4+ T cells were stained with Cell Trace™ Violet (CTV) Cell Proliferation Kit (Molecular Probes) and FK506 or each of the four kinds of novel compounds was added at a concentration of 0.01 ng/mL, 0.1 ng/mL, 1 ng/mL, 10 ng/mL, 100 ng/mL, 1000 ng/mL, followed by incubation for 72 hours. For activation of T cells. Dynabeads® Mouse T-Activator CD3/CD28 (Gibco) was used. As a control group, non-activated T cells were used. After incubation, CTV intensity was analyzed by flow cytometry.

[8] = tested on: primary cultured murine hippocampal neurons; assay: neurite outgrowth in primary cultured hippocampal neurons; assay type: cell-based; settings: treatment concentration 1 ng/mL, neurite lengths, FIG. 26
Method: The neuronal growth-promoting ability of the four kinds of novel compounds was examined using primary cultured murine hippocampal neurons according to a method reported by Jing Sun et al. (J. Neuroinflam. 15:180, 2018). […] The neurite lengths were measured on photographic prints according to a previously reported method (J. Pharmacol. Exp. Ther. 302:1278-1285, 2002).

Compound | spontaneous excitatory synaptic currents (sEPSCs), frequency [1] | recovery in the density of neuron fibers [2] | cytotoxicity (MTT) [3] | reverse mutation induction (Ames test) [4] | reverse mutation induction (Ames test) [5] | risk of cardiac repolarization (hERG channel current) [6] | Immunosuppression IC50 ([7]; activated mouse CD4+ T cells (CD3/CD28), 72 hours incubation, CTV intensity by flow cytometry) [µg/mL] | neurite outgrowth effect [8] | immunosuppressive activity as compared with FK506 ([7]; T cell proliferation, CTV intensity, Table 7 and FIG. 25) | IC50 ([7]; activated mouse CD4+ T cells (CD3/CD28), 72 hours incubation, CTV intensity by flow cytometry, read-out: Immunosuppression IC50) [µg/mL]
CCC[C@@H]1/C=C(\C)C[C@H](C)C[C@H](OC)[C@H]2O[C@@](O)(CC(=O)N3CCC[C@H]3C(=O)O[C@H](/C(C)=C/[C@@H]3CC[C@@H](O)[C@H](OC)C3)[C@H](C)[C@@H](O)CC1=O)[C@H](C)C[C@@H]2OC [9-deoxo-36,37-dihydro-prolyl FK506] | 3.29±0.22 | superior recovery in the density of neuron fibers, as compared to those treated with FK506 | no cytotoxicity was observed | without inducing reverse mutations | without inducing reverse mutations | without risk of cardiac repolarization | – | – | – | –
CCC[C@@H]1/C=C(\C)C[C@H](C)C[C@H](OC)[C@H]2O[C@@](O)(CC(=O)N3CCC[C@H]3C(=O)O[C@H](/C(C)=C/[C@@H]3CC[C@@H](O)[C@H](O)C3)[C@H](C)[C@@H](O)CC1=O)[C@H](C)C[C@@H]2OC [9-deoxo-31-O-demethyl-36,37-dihydro-prolyl FK506] | 2.63±0.27 | superior recovery in the density of neuron fibers, as compared to those treated with FK506 | no cytotoxicity was observed | without inducing reverse mutations | without inducing reverse mutations | without risk of cardiac repolarization | – | – | – | –
C=CC[C@@H]1/C=C(\C)C[C@H](C)C[C@H](OC)[C@H]2O[C@@](O)(C(=O)C(=O)N3CCCC[C@H]3C(=O)O[C@H](/C(C)=C/[C@@H]3CC[C@@H](O)[C@H](OC)C3)[C@H](C)[C@@H](O)CC1=O)[C@H](C)C[C@@H]2OC [FK506] | 2.61±0.18 | – | – | – | – | – | – | – | – | –
9-deoxo-prolyl FK520 | – | superior recovery in the density of neuron fibers, as compared to those treated with FK506 | – | without inducing reverse mutations | without inducing reverse mutations | without risk of cardiac repolarization | 3.2888 | superior neurite outgrowth effect, as compared with FK506 | – | –
CC[C@@H]1/C=C(\C)C[C@H](C)C[C@H](OC)[C@H]2O[C@@](O)(CC(=O)N3CCC[C@H]3C(=O)O[C@H](/C(C)=C/[C@@H]3CC[C@@H](O)[C@H](O)C3)[C@H](C)[C@@H](O)CC1=O)[C@H](C)C[C@@H]2OC [9-deoxo-31-O-demethyl-prolyl FK520] | – | superior recovery in the density of neuron fibers, as compared to those treated with FK506 | no cytotoxicity was observed | without inducing reverse mutations | without inducing reverse mutations | without risk of cardiac repolarization | – | – | lowest immunosuppressive activity | 7.09 (≈ 9.45 µM)
